# Measured values as given in EP0799174B1, “BIOCIDAL ALCOHOLS, THEIR PRODUCTION AND THEIR USE” (SCHÜLKE & MAYR GMBH, priority 1994, dated 1996).
# How the values were obtained:
# [1] = system: Germ mixture of Staphylococcus aureus, Staphylococcus epidermis, Escherichia coli, Klebsiella pneumoniae, Enterobacter gergoviae, Pseudomonas aeruginosa …; test: Preservative test: weekly loading of the sample with germ suspension; assay type: cell-based; settings: aromatic alcohol 0.5% in sulfosuccinate 12.0% / betaine 3.0% formulation
# From the text: Standard formulation: • sulfosuccinate 12.0% • betaine 3.0% • aromatic alcohol 0.5% • re-fatting agent • skin care additives • thickener • dem. water to 100 Test germs: Germ mixture of Staphylococcus aureus, Staphylococcus epidermis, Escherichia coli, Klebsiella pneumoniae, Enterobacter gergoviae, Pseudomonas aeruginosa, Pseudomonas fluorescens, Pseudomonas putida, Aspergillus niger, Penicillium funiculosum, Candida albicans; Total germ count 10^8-10^9/ml. Test method: weekly loading of the sample with germ suspension; smear onto CS and Sabouraud agar. See also K.-H. Diehl, P. Oltmanns, J. Ramsbotham, Seife, Öle, Fette, Wachse 118 (1992) 546.
# Data expressed semi-qualitatively: • - no growth < 10^2 CFU/g (CFU = colony-forming units) • + slight growth approx. 10^3 CFU/g • ++ moderate growth approx. 10^4-10^5 CFU/g • +++ heavy growth > 10^5 CFU/g
# Ps. aeruginosa = test: Quantitative surface test according to DGHM, alcoholic surface disinfectant; assay type: cell-based; settings: additive (0.05% for single substances) in ethanol 25.0 % / 1-propanol 35.0 % formulation, germs deposited after approx. 20 minutes
# From the text: Standard formulation: • ethanol (MEK denatured) 25.0 % • 1-propanol 35.0 % • perfume 0.02 % • benzotriazole 0.001 % • Marlipal 013/70 0.1% (isotridecanpolyethyleneglycol-(7)-ether = C13 oxo alcohol + 7 mol ethylene oxide) • active ingredient additive x% • dem. water to 100 Test germ: Ps. aeruginosa Test method:
# Quantitative surface test according to DGHM (Deutsche Gesellschaft für Hygiene and Microbiology = German Association for Hygiene and Microbiology). In order to exclude the effectiveness of the readily volatile alcohol components (ethanol, 1-propanol), the preparations were deposited onto the surfaces and the germs were deposited after approx. 20 minutes. Test surfaces: PVC and OP tiles Data as reduction factors (log stages)
# [2] = Skin antiseptic a): suspension test according to DGHM; assay type: cell-based; settings: formulation with 1.0% aromatic alcohol in 1-propanol 30.0%, 2-propanol 45.0%; concentration and time
# [3] = system: Pseudomonas aeruginosa ATCC 15442; test: Skin antiseptic b): quantitative suspension test according to DGHM; assay type: cell-based; settings: 1.0% 8, formulation 1-propanol 15.0%, 2-propanol 30.0%
# From the text: (§1) • 1-propanol 15.0% • 2-propanol 30.0% • aromatic alcohol 1.0% • dem. water to 100 [table]
# [4] = system: Staphylococcus aureus ATCC 6538; test: as above; assay type: cell-based; settings: 1.0% 8, formulation 1-propanol 15.0%, 2-propanol 30.0%
# From the text: as §1
# resident skin flora = test: Skin antiseptic a): action against the resident skin flora; assay type: in vivo; settings: formulation with 1.0% aromatic alcohol in 1-propanol 30.0%, 2-propanol 45.0%; concentration and time
structure (smiles),measurement,setting,value
"OCCCc1ccccc1 [Alcohol 1, 3-phenyl propanol, reference compound]","growth, 1st week",[1]; 1st week,+ (slight growth approx. 10^3 CFU/g)
same,"growth, 2nd week",[1]; 2nd week,+ (slight growth approx. 10^3 CFU/g)
same,"growth, 3rd week",[1]; 3rd week,- (no growth < 10^2 CFU/g)
same,"growth, 4th week",[1]; 4th week,- (no growth < 10^2 CFU/g)
same,"growth, 5th week",[1]; 5th week,- (no growth < 10^2 CFU/g)
same,reduction factors (log stages),"Ps. aeruginosa; PVC, 30'",0 log stages
same,reduction factors (log stages),"Ps. aeruginosa; PVC, 60'",0 log stages
same,reduction factors (log stages),"Ps. aeruginosa; PVC, 240'",0 log stages
same,reduction factors (log stages),"Ps. aeruginosa; Tiles, 30'",0 log stages
same,reduction factors (log stages),"Ps. aeruginosa; Tiles, 60'",0 log stages
same,reduction factors (log stages),"Ps. aeruginosa; Tiles, 240'",0 log stages
"CCCCCC(=Cc1ccccc1)CO [Alcohol 8, α-amyl cinnamyl alcohol]",values in the suspension test according to DGHM,[2],"50%, 30 seconds"
same,reduction factors (log stages),"[3]; column 25, contact time 1'",0 log stages
same,reduction factors (log stages),"[3]; column 25, contact time 2'",0 log stages
same,reduction factors (log stages),"[3]; column 25, contact time 5'",0 log stages
same,reduction factors (log stages),"[3]; column 25, contact time 30""",0 log stages
same,reduction factors (log stages),"[3]; column 50, contact time 1'",>5.8 log stages
same,reduction factors (log stages),"[3]; column 50, contact time 2'",>5.7 log stages
same,reduction factors (log stages),"[3]; column 50, contact time 5'",>5.7 log stages
same,reduction factors (log stages),"[3]; column 50, contact time 30""",>5.6 log stages
same,reduction factors (log stages),"[3]; column 75, contact time 1'",>5.8 log stages
same,reduction factors (log stages),"[3]; column 75, contact time 2'",>5.7 log stages
same,reduction factors (log stages),"[3]; column 75, contact time 5'",>5.7 log stages
same,reduction factors (log stages),"[3]; column 75, contact time 30""",>5.6 log stages
same,reduction factors (log stages),"[4]; column 25, contact time 1'",3.6 log stages
same,reduction factors (log stages),"[4]; column 25, contact time 2'",4.7 log stages
same,reduction factors (log stages),"[4]; column 25, contact time 5'",>5.8 log stages
same,reduction factors (log stages),"[4]; column 25, contact time 30""",2.8 log stages
same,reduction factors (log stages),"[4]; column 50, contact time 1'",>5.5 log stages
same,reduction factors (log stages),"[4]; column 50, contact time 2'",>5.9 log stages
same,reduction factors (log stages),"[4]; column 50, contact time 5'",>5.8 log stages
same,reduction factors (log stages),"[4]; column 50, contact time 30""",>5.6 log stages
same,reduction factors (log stages),"[4]; column 75, contact time 1'",>5.5 log stages
same,reduction factors (log stages),"[4]; column 75, contact time 2'",>5.9 log stages
same,reduction factors (log stages),"[4]; column 75, contact time 5'",>5.8 log stages
same,reduction factors (log stages),"[4]; column 75, contact time 30""",>5.6 log stages
same,action against the resident skin flora,resident skin flora,"100%, 15 seconds"
